# Results taken from US11401294B2, “Co-crystal forms of a novobiocin analog and proline” (Reata Pharmaceuticals, Inc., priority 2018, dated 2022).
# Like-named read-outs stand apart in the source and are kept apart here. Marks after values point to notes of the source that are not given here.
# Assays:
# [1] = Systemic exposure to 4a after single oral gavage (suspension) or loose-filled capsule in monkeys (plasma LC/MS/MS, PK); assay type: in vivo; conditions: male, cynomolgus, cynomolgus monkey, oral gavage suspension 30 mg/kg, 0.25 hr, read-out: 4a Plasma Concentration, mean (±SD)
# [2] = in vivo; conditions: male, C57BL/6, mouse, po, 1000 mg/kg
# Method: Blood samples for plasma isolation were collected at 0.25, 0.5, 1, 2, 4, 8, and 24 hours post-dose, using a separate group (n=5/group/time point) of mice for each time point, as summarized in Table 14 below. Plasma samples were analyzed for concentrations of 4a by LC/MS/MS methodology as described below.
# 4a was extracted from K3EDTA-fortified plasma samples using a protein precipitation method. In a well of a polypropylene microplate (96-well), 20 μL of a 2.5-ng/mL D3-4a (internal standard, IS) solution prepared in acetonitrile/H2O (1:1) was added, followed by addition of 20 μL of plasma sample. The plate was sealed with sealing tape (Phenomenex, AH0-7362) and gently mixed with a vortex-mixer for 1 minute. The solution was pipetted into a well of a polypropylene plate (96-well, 2 mL, Phenomenex, AH0-7194) that contained 500 μL of methanol. The plate was sealed and vortex-mixed for 5 minutes followed by centrifugation at 3000×g for 3 minutes at room temperature. A 300-μL aliquot of the supernatant was transferred to a new well that contained 300 μL of deionized water. After gentle mixing, the plate was sealed and placed in an LC autosampler maintained at 12° C., and a 10-μL aliquot was injected into an LC/MS/MS system for quantitative analysis of 4a.
# Liquid chromatographic separation of 4a was achieved by a reversed-phase analytical column with mobile phase solution containing H2O, acetonitrile, and formic acid. The chromatographed analyte was detected by a Waters Xevo TQ-S triple quadrupole mass spectrometer operating in multiple-reaction-monitoring (MRM) mode. Chromatographed peak areas for quality control samples, calibration standards, and study samples were integrated using MassLynx software V4.1 (Waters Corp.).
# Pharmacokinetic parameter estimates were obtained from non-compartmental analysis of the mean 4a plasma concentration-time data for each dose group using WinNonlin™ software version 6.3 (Pharsight Corp., Cary, N.C.). […] The time of the last measurable concentration was defined as the time after which 4a concentrations were below the limit of quantitation (BLQ) in the majority of animals for each dose group.
# [3] = Systemic exposure to 4a after single oral gavage (suspension) or loose-filled capsule in monkeys (plasma LC/MS/MS, PK); assay type: in vivo, male cynomolgus monkeys; conditions: for AUC(0-t): read-out: AUC(0-t), mean (±SD); for Cmax: read-out: Cmax, mean (±SD); for Tmax: read-out: Tmax (median)
# Method: Dosing of Material A accounted for the presence of proline on a weight basis. Blood samples for plasma isolation were collected at […], 0.5, 1, 2, 4, 8, 12, and 24 hours post-dose from each monkey.
# [4] = tested on: Hsp90; conditions: Kusuma (2012) and Ma (2015); cited from earlier work
# [5] = tested on: neurons; conditions: Kusuma (2012); cited from earlier work
# [6] = male, cynomolgus, cynomolgus monkey, plasma, oral gavage suspension 30 mg/kg, read-out: 4a Plasma Concentration, mean (±SD)
# [7] = male, cynomolgus, cynomolgus monkey, plasma, oral gavage suspension 30 mg/kg
# [8] = male, cynomolgus, cynomolgus monkey, plasma, oral, capsule 50 mg, read-out: 4a Plasma Concentration, mean (±SD)
# [9] = male, cynomolgus, cynomolgus monkey, plasma, oral, capsule 50 mg, BLQ values included as 1/2 LLOQ (0.200 ng/mL), read-out: 4a Plasma Concentration, mean (±SD)
# [10] = male, cynomolgus, cynomolgus monkey, plasma, po, 50 mg capsule
smiles,measurement,setting,value
"CO[C@@H]1[C@@H](O)[C@@H](O)[C@H](Oc2ccc(CCNC(C)=O)c(-c3cccc(F)c3)c2)OC1(C)C [amorphous 4a, N-(2-(5-(((2R,3R,4S,5R)-3,4-dihydroxy-5-methoxy-6,6-dimethyltetra-hydro-2H-pyran-2-yl)oxy)-3′-fluoro-[1,1′-biphenyl]-2-yl)ethyl)-acetamide]",concentration at […],[1],103 ± 71 ng/mL
same,AUC(0-t),[2],2880 ng·h/mL
same,Cmax,[2],6760 ng/mL
same,Tmax,[2],15 min
same,concentration at 0.5 h,[2],3060 ± 1600 ng/mL
same,concentration at 1 h,[2],359 ± 140 ng/mL
same,concentration at 2 h,[2],80.7 ± 116 ng/mL
same,concentration at 4 h,[2],2.28 ± 0.92 ng/mL
same,concentration at 8 h,[2],4.01 ± 4.34 ng/mL
same,"4a Plasma Concentration, mean (±SD)","[3]; capsule 50 mg, 24 hr, BLQ values included as 1/2 LLOQ (0.200 ng/mL)",6.11 ± 9.23^c ng/mL
same,concentration at 0.5 h,[3]; [6],129 ± 92 ng/mL
same,concentration at 1 h,[3]; [6],128 ± 56 ng/mL
same,concentration at 2 h,[3]; [6],80.2 ± 26.4 ng/mL
same,concentration at 4 h,[3]; [6],14.1 ± 5.5 ng/mL
same,concentration at 8 h,[3]; [6],1.2 ± 0.45 ng/mL
same,AUC(0-t),[3]; [7],307 ± 96 ng·h/mL
same,Cmax,[3]; [7],160 ± 78 ng/mL
same,Tmax,[3]; [7],30 min
same,concentration at […],"[3]; male, cynomolgus, cynomolgus monkey, plasma, oral, capsule 50 mg, 0.25 hr, read-out: 4a Plasma Concentration, mean (±SD)",15.9 ± 12.9 ng/mL
same,concentration at 0.5 h,[3]; [8],12.3 ± 5.5 ng/mL
same,concentration at 1 h,[3]; [8],5.97 ± 0.95 ng/mL
same,concentration at 2 h,[3]; [9],1.9 ± 1.89 ng/mL
same,concentration at 4 h,[3]; [9],0.2 ng/mL
same,concentration at 8 h,[3]; [9],0.951 ± 1.3 ng/mL
same,concentration at 12 h,"[3]; male, cynomolgus, cynomolgus monkey, plasma, oral, capsule 50 mg, 12 hr, BLQ values included as 1/2 LLOQ (0.200 ng/mL), read-out: 4a Plasma Concentration, mean (±SD)",3.53 ± 5.78 ng/mL
same,concentration at 24 h,"[3]; male, cynomolgus, cynomolgus monkey, plasma, oral, loose-filled capsule 50 mg, 24 hours post-dose (secondary peak), read-out: mean (±SD) 4a plasma concentration",6.11 ± 9.23 ng/mL
same,AUC(0-t),[3]; [10],81.6 ± 105 ng·h/mL
same,Cmax,[3]; [10],19.7 ± 9.4 ng/mL
same,Tmax,[3]; [10],15 min
same,"4a Plasma Concentration, mean (±SD)","[3]; oral gavage suspension 30 mg/kg, 12 hr",BLQ^d
same,"4a Plasma Concentration, mean (±SD)","[3]; oral gavage suspension 30 mg/kg, 24 hr",BLQ^d
"CO[C@@H]1[C@@H](O)[C@@H](O)C(Oc2ccc(CCNC(C)=O)c(-c3cccc(F)c3)c2)OC1(C)C (single isomer, unassigned) [Form 4]",potency in Hsp70-independent inhibition of Hsp90,[4],excellent potency
same,neuronal protective activity,[5],high neuronal protective activity
